The source of these data is ChEMBL document CHEMBL3988442, “University of Dundee, Small-Polar-MMV Screening Library” (2021).

Experiment [1] can be described thus: microbe, parasite or virus in culture. Particulars: Mycobacterium tuberculosis, 72 h, read-out: pIC50 (converted).
The nature of experiment [2]: microbe, parasite or virus in culture. Particulars: Mycobacterium tuberculosis, 96 h, read-out: pIC50 (converted).

As to `CN(C)S(=O)(=O)c1cccc(CN2CCCC2)c1`, the IC50 in experiment [1] and in experiment [2] was greater than 501 µM each time.

Turning to `O=C(Nc1ccccn1)c1csc(NC2CCCC2)n1`, the IC50 in experiment [1] was 46.7 µM; in experiment [2], 26.1 µM.

As to `Cc1ccc(CNc2ccccc2-n2ccc(C)n2)nc1`, the IC50 was greater than 50.1 µM in experiment [1] and 24.5 µM in experiment [2].

In the case of `Cn1cc(C(=O)N[C@@H]2CN(Cc3ccc(F)cc3)[C@@H]3CCCO[C@@H]32)cn1`, the IC50 in experiment [1] and in experiment [2] was greater than 50.1 µM throughout.

For `Cn1nc(C2CCCN(Cc3cc(F)ccc3F)C2)c2nccnc21` (stereo unspecified), the IC50 in experiment [1] and in experiment [2] was greater than 50.1 µM each time.

For `Cc1ccn(-c2ccc(NCc3ccccc3F)nn2)n1`, the values for the IC50 in experiment [1] and in experiment [2] were 32.8 µM and 7.29 µM, respectively.

Take `COCC(=O)NC(C)Cc1cccc(Cl)c1` (stereo unspecified): the IC50 in experiment [1] is 11.2 µM; in experiment [2] it was 18.5 µM.

`CCCNC(=O)CSCc1nc(-c2ccccc2)no1`: the figures for the IC50 in experiment [1] and in experiment [2] were 239 µM and 437 µM, respectively.

For the compound `CCOc1ccc(C(=O)Nc2ccnc(C)c2)cn1`, the IC50 in experiment [1] was 279 µM; in experiment [2], greater than 501 µM.

As to `Cc1ccc(C2CCCN2CCS(C)(=O)=O)s1` (stereo unspecified), the IC50 in experiment [1] is 205 µM; in experiment [2], greater than 501 µM.

For `O=C(NCCc1c[nH]c2ccccc12)C1(n2cnnn2)CCCCC1`, the IC50 was 47.6 µM in experiment [1] and greater than 50.1 µM in experiment [2].

Take `CCCOc1ccc(CNC(=O)c2cc[nH]n2)cn1`: the IC50 in experiment [1] was 114 µM; in experiment [2], greater than 501 µM.

Regarding `CCc1ccccc1OC1CN(C(=O)c2cccs2)C1`, the figures for the IC50 in experiment [1] and in experiment [2] were 5.46 µM and 14.2 µM, respectively.

Take `CC(C)CC(O)CNC(=O)c1cc(F)ccc1F` (stereo unspecified): the IC50 in experiment [1] is 238 µM; in experiment [2] it was 57.2 µM.

In the case of `Cn1c(SCCCO)nnc1-c1ccccc1F`, the IC50 in experiment [1] is 275 µM; in experiment [2], 279 µM.

In the case of `CC1CCN(C(=O)c2cnn(-c3cccnc3)c2)CC1`, the IC50 was 307 µM in experiment [1] and 67.4 µM in experiment [2].

Turning to `OC(CN1CCCSCC1)c1ccc(F)cc1` (stereo unspecified), the IC50 in experiment [1] and in experiment [2] was greater than 501 µM throughout.

On to `COCC(=O)NCCc1cc(Cl)c2c(c1)OCCO2`, for which the IC50 was 216 µM in experiment [1] and 176 µM in experiment [2].

As to `O=c1ccc(Br)cn1Cc1noc(C2CC2)n1`, the IC50 is 78.4 µM in experiment [1] and 204 µM in experiment [2].

Regarding `NCc1coc(-c2cccs2)n1`, the IC50 is 144 µM in experiment [1] and 298 µM in experiment [2].

For `CCOCCN(C)C(c1cccnc1)c1ccc(F)cc1F` (stereo unspecified), the IC50 in experiment [1] and in experiment [2] was greater than 50.1 µM in each case.

As to `COCCNC(=O)Nc1ccc2c(c1)OC(C)(C)O2`, the results for the IC50 in experiment [1] and in experiment [2] were 65.7 µM and 170 µM, respectively.

For the compound `CCOC(=O)C1CCCN(C(=O)c2onc(C)c2Cl)C1` (stereo unspecified), the values for the IC50 in experiment [1] and in experiment [2] were 232 µM and 303 µM, respectively.

As to `Cn1c(=O)c2c(nc(Cl)n2CCCC#N)n(C)c1=O`, the IC50 in experiment [1] and in experiment [2] was greater than 501 µM in each case.

Turning to `O=C(NCC1(CO)CC1)OCc1ccccc1`, the IC50 in experiment [1] and in experiment [2] was 149 µM throughout.

Turning to `NC(=O)c1cc(C2CCCN(C(=O)CCc3ccncc3)C2)n[nH]1` (stereo unspecified), the IC50 in experiment [1] and in experiment [2] was greater than 50.1 µM each time.

Regarding `CCN(C)S(=O)(=O)N(CC)CC(O)c1ccc(C)cc1` (stereo unspecified), the IC50 in experiment [1] is 334 µM; in experiment [2] it was 293 µM.

Turning to `Cc1ccnc(NCCS(=O)(=O)NCC2CCC2)c1`, the IC50 in experiment [1] is 265 µM; in experiment [2] it was 117 µM.

As for `O=C(NC1CCCc2occc21)c1cccnc1` (stereo unspecified), the results for the IC50 in experiment [1] and in experiment [2] were 57.8 µM and 79.9 µM, respectively.

In the case of `O=c1c2ccccc2cnn1CN1CCCC1`, the IC50 in experiment [1] and in experiment [2] was greater than 501 µM in each case.

With `O=C(CCc1cc(Cl)no1)N1CCOC(C(F)(F)F)C1` (stereo unspecified), the values for the IC50 in experiment [1] and in experiment [2] were greater than 501 µM and 134 µM, respectively.

For `NCCc1nc(-c2ccccn2)cs1`, the IC50 in experiment [1] is 2.67 µM; in experiment [2] it was 1.16 µM.

For the compound `O[C@@H]1CNC[C@H](O)C1`, the IC50 in experiment [1] and in experiment [2] was greater than 501 µM each time.
